The term IC50 denotes the concentration needed to halve the response being measured.

One experiment has as its target T1, ASIC1a (Homo sapiens, UniProt P78348).
T1 construct: expressed in transfected cells
T1 sequence (P78348 1-528): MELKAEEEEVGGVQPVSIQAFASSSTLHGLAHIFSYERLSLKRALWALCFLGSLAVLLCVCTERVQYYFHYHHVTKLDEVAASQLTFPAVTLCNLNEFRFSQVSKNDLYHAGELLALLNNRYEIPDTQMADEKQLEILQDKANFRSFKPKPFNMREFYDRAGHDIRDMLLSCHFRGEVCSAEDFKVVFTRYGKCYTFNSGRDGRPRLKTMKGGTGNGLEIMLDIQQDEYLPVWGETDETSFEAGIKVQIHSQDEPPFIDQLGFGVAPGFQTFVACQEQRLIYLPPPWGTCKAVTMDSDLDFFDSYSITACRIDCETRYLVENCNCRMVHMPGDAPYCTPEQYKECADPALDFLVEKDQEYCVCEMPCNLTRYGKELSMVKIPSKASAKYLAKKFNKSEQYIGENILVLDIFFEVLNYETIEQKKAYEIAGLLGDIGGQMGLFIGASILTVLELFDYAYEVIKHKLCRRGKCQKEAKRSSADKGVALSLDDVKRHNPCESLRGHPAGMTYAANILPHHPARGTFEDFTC
Nature of the experiment: Whole-cell patch clamp, competitive blocking of glutamate-potentiated ASIC1a current in CHO cells. To be noted: pH 7.0, 500 μM glutamate, read-out: IC50 of competitive antagonism against the glutamate binding ASIC1a current. Type of experiment: cell-based. The procedure: Figure a illustrates the LK-2 concentration-dependent blocking of signal of ASIC1a current (recorded from the same CHO cell) activated at pH 7 in patch clamp experiments, with a glutamate concentration of 500 μM and LK-2 concentrations of 1, 10, 50, and 100 μM in sequence. […] Smaller values indicate stronger blocking effects of the compound.
[drawing 3] • 2. Electrophysiological experiments refer to the use of patch clamp techniques to overexpress ASICs (ASIC1a) and NMDARs (GluNR1+NR2A or GluNR1+NR2B) in CHO cell lines (Chinese hamster ovary cells), with the above-mentioned proteins carrying GFP green fluorescent protein for identification under fluorescence microscopy. The synthesized small molecules are separately tested for their blocking effects on the currents generated by the two types of receptors, and the IC50 values are calculated. • 2.1 The experimental steps of the membrane clamp technique are as follows. […]
Chinese hamster ovary cells (CHO) and HEK293T cells (provided by the Chinese Academy of Sciences Stem Cell Bank) were cultured separately in F12 and DMEM media (Gibco) containing 10% FBS (Gibco). […] All experiments were performed 24-48 hours after transfection, and all culture dishes were washed three times with ECF before the experiment, and GFP-positive CHO cells were observed under a fluorescence microscope for patch clamp recording. […]
For orientation: Patch clamp records ionic current or voltage across a cell membrane.

For the next experiment, the target named is T2, GluN1+NR2B (Homo sapiens, UniProt Q05586+Q13224).
T2 construct: expressed in transfected cells; host or cells: CHO cells
Nature of the experiment: Whole-cell patch clamp, blocking of GluN1+NR2B NMDAR current in CHO cells. Type of experiment: cell-based. To be noted: 100 μM NMDA and 1 μM glycine, read-out: IC50 of competitive antagonism against glutamate binding GluN1+NR2B currents. The procedure:
Figure a illustrates LK-2 concentration-dependent blocking of signal of GluN1+GluN2A and GluN1+GluN2B subtypes of NMDAR currents (recorded from the same CHO cell) in patch clamp experiments, with 100 μM NDMA and 1 μM glycine used to activate NMDAR currents. LK-2 concentrations were 1, 10, 100, and 500 μM in sequence. Figure b illustrates the dose-response curves fitted based on the current amplitudes recorded in Figure a, with IC50 representing the half-maximal inhibitory concentration. Smaller IC50 values indicate stronger blocking effects of the compound.
[drawing 3] • 2. Electrophysiological experiments refer to the use of patch clamp techniques to overexpress ASICs (ASIC1a) and NMDARs (GluNR1+NR2A or GluNR1+NR2B) in CHO cell lines (Chinese hamster ovary cells), with the above-mentioned proteins carrying GFP green fluorescent protein for identification under fluorescence microscopy. The synthesized small molecules are separately tested for their blocking effects on the currents generated by the two types of receptors, and the IC50 values are calculated. • 2.1 The experimental steps of the membrane clamp technique are as follows.
Whole-cell patch clamp recordings were performed on neurons or CHO cells cultured in a cell-culture dish mounted on a fixed stage upright microscope. The recording electrode (resistance 4-6 MΩ) was made of 1.5 mm borosilicate glass. […]

T2 sequence (Q13224 27-1484, other chains not shown): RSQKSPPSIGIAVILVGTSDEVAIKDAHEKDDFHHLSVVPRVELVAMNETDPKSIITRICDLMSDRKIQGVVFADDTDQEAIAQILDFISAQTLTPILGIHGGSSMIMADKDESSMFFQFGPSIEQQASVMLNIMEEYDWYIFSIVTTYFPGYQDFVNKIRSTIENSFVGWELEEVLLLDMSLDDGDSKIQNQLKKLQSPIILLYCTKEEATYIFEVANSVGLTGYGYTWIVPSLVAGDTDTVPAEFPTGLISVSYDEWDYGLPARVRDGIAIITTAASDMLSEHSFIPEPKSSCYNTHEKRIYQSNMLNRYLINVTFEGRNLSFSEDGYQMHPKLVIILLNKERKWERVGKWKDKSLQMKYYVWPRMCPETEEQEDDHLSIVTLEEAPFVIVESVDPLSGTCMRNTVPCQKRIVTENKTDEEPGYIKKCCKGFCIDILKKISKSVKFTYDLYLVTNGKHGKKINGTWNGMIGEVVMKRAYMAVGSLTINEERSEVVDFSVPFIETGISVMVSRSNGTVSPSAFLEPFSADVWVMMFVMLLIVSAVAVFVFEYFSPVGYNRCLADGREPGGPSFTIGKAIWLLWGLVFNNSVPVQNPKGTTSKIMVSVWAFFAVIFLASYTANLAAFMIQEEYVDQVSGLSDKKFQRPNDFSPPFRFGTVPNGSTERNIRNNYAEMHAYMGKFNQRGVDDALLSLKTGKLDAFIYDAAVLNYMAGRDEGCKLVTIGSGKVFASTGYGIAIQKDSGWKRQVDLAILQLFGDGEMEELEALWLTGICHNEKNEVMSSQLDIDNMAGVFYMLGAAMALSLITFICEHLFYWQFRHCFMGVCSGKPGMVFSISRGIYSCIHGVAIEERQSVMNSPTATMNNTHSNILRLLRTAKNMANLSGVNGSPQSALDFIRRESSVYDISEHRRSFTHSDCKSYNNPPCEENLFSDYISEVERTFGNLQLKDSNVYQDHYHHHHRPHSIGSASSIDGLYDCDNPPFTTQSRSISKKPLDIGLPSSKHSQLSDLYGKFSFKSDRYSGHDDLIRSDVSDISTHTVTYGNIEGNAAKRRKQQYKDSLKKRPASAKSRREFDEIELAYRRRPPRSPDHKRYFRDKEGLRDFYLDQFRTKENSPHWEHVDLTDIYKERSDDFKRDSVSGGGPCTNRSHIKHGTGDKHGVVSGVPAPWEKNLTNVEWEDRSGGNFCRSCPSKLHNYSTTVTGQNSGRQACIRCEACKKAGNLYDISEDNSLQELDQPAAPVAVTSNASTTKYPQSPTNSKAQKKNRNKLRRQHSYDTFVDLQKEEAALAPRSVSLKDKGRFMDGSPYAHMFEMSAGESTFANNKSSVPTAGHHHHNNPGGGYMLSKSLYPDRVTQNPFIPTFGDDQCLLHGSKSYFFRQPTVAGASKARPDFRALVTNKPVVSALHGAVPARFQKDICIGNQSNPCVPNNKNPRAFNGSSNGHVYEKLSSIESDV

With `O=C(O)C1CN(C(c2ccccc2)P(=O)(O)O)CCN1` (centres unmarked) [LK-2], the results for the IC50 at ASIC1a and at GluN1+NR2B were 6.6 ± 2.1 µM and 386 ± 109 µM, respectively.

For the origin of these results see patent publication US20250120988A1, “SMALL MOLECULE COMPOUND FOR TREATING ISCHEMIC STROKE, ITS PREPARATION METHOD, AND APPLICATION” (SHANGHAI SIXTH PEOPLE'S HOSPITAL, priority 2023, published 2025).
